Data from patent US12441690B2, “Benzamide derivative compound, method for preparing same, and pharmaceutical composition for treating or preventing inflammatory disease containing same as active ingredient” (SEOUL NATIONAL UNIVERSITY R&DB FOUNDATION, priority 2017, dated 2025).

Tests used:
[1] = biological target: PDE4B enzyme (Homo sapiens (Human), UniProt Q07343); assay: PDE4B inhibitory activity, LANCE Ultra cAMP assay; type: biochemical; details: 50% inhibition from cAMP to 5′AMP
Protocol: In order to evaluate the PDE4B inhibitory activity of the compounds according to the present invention, the following experiment was performed using LANCE Ultra cAMP assay kit (Perkin Elmer, U.S.A).
Particularly, 5 μl of the 3 nM cAMP dissolved reaction buffer was added to each reaction well (LANCE Ultra cAMP assay kit). Then, each example compound dilution solution (2.5 μl) and PDE4B enzyme (0.1 ng/well, BPS Biosciences, San Diego, U.S.A) were added to the well, followed by incubation for 1 hour at 37° C. Next, 5 μl of ULight-anti-cAMP detection reactant supplemented with 5 μl of Eu-cAMP tracer and 1 mM IBMX (LANCE Ultra cAMP assay kit) was added thereto, followed by incubation for 1 hour at 37° C.

[2] = biological target: PDE4B GFP fusion protein (human PDE4B2A) (Homo sapiens (Human), UniProt Q07343); assay: PDE4B GFP fusion protein-inhibitor assay in HEK-293 cells; type: cell-based
Chain of PDE4B GFP fusion protein (human PDE4B2A) (Q07343 other isoform, or with tags, fused parts or gaps): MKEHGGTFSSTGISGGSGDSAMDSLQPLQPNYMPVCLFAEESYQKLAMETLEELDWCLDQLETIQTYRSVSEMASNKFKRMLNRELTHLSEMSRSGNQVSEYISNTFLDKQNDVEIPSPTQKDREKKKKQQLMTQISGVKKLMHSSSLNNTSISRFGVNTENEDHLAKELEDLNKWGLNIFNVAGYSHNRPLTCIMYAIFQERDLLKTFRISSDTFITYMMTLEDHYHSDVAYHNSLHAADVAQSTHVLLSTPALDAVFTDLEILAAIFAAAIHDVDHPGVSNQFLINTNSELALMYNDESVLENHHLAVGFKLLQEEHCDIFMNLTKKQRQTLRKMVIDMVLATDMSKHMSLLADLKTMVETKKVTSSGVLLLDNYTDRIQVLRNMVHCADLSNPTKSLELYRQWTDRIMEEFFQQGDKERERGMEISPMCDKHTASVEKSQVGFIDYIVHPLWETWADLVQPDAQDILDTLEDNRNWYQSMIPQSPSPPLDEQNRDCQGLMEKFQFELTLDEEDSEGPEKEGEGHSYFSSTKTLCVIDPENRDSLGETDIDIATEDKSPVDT
Protocol: To evaluate the intracellular enzyme inhibitory activity of the compounds of Examples 1 and 25, PDE4B GFP fusion protein-inhibitor assay was performed using GFP (green fluorescent protein).
The DNA complementary to human PDE4B2A was amplified by PCR using the DNA genome extracted from the human blood sample (QIAamp DNA Blood Mini Kit, Qiagen, Valencia, CA, U.S.A.).
For DNA amplification, 5′-[…]-3′ was used as a forward primer, and 5′-[…]-3′ was used as a reverse primer.
The amplified PDE4B2A cDNA was cloned into pAcGFP1-N1, the mammalian expression mediator, between the EcoR1 and BamH1 restriction enzyme sites, which was transfected into E. coli DH5α cells using chemical transformation reagents (Invitrogen, Carlsbad, CA, U.S.A.).
Plasmids were isolated from the colonies with kanamycin using Plasmid Midi Kit (Qiagen, Valencia, CA, U.S.A.). Then, the plasmid cloned with PDE4B2A gene was transfected into HEK-293 cells (Korean Cell Line Bank, Seoul, Korea) using lipofectamine 3000 (Invitrogen).
The transfected cells were cultured in DMEM at 37° C. for 48 hours in a CO2 incubator. […] Upon completion of the culture, the fluorescence emission of HEK-293 cells was measured by confocal microscopy to perform quantitative analysis, and the results are shown in FIGS. 1 and 2.
In addition, the ratio of the surface cover area of GFP to the total cell surface area was measured using MetaMorph software, and the results are shown in FIG. 2.

[3] = test system: Nc/Nga mice treated with DNCB; assay: Relief of atopic symptoms in Nc/Nga mice treated with DNCB; type: in vivo, mouse; details: for weight of the spleen: DNCB-treated mice; for lymph node size / number of scratches for 20 minutes / symptoms of hypertrophy and edema of incised dorsal skin / weight of the lymph node: compared to mouse treated with DNCB alone; for skin thickness: incised dorsal skin, DNCB alone 1.19 mm, control 0.45 mm; for side effects: mouse treated with the compound alone, applied on dorsal skin; for incidence of inflammation on the dorsal skin: treated together with DNCB, compared to DNCB only, last day of experiment; for dermatitis score at week 5: treated with DNCB, total of 12 points
Protocol: In order to confirm the atopic dermatitis alleviation effect of the compounds of Examples 1 and 25 according to the present invention, atopic symptom relief experiments were performed on the mice with atopic symptoms.
DNCB (dinitrochlorobenzene) was applied on the back of Nc/Nga mouse to induce atopic dermatitis-like symptoms.
As a carrier for treating DNCB, acetone-olive oil in which acetone and olive oil were mixed (3:1) was used. Six groups of mice were prepared as follows: mice treated with the carrier alone; mice treated with Example 1 compound, mice treated with Example 25 compound, mice treated with DNCB alone, mice treated with DNCB and Example 1 compound, and mice treated with DNCB and Example 25 compound.
Particularly, 2 days before the start of the experiment, hair of the dorsal skin of the mouse was removed. After 2 days after removing the hair, 150 μl of 1% DNCB was dissolved in a carrier and applied on the dorsal skin of the mouse. Four days later, the same solution was applied on the dorsal skin of the mouse once again. Then, 150 μl of 0.2% DNCB solution was applied on the dorsal skin of the mouse once a week for 5 weeks. The experimental group mice were applied with the compounds of Example 1 and Example 25 daily from the 6th day of the experiment to the end of the experiment.
The degree of atopic symptoms in the experimental group and control group mice was evaluated and quantified once a week for a period of 5 weeks. Scores were given as follows for the four items of erythema/bleeding, edema, threshing/corrosion, scaling/dryness, respectively: 1 (none); 2 (moderate); and 3 (serious). Each experimental group and control group was scored based on a total of 12 points.
In order to confirm the effect of the compounds according to the present invention on relieving itching, the number of scratches for 20 minutes of each mouse of the experimental group and control group was measured, and the results are shown graphically in FIG. 5(a), (b).
After completing the experiment, the physical changes were observed by incising the dorsal skin of the experimental group and control group mice. As a result, hypertrophy and edema were clearly observed in the mouse treated with DNCB alone.
In addition, to confirm the alleviating effect of the compounds according to the present invention on skin hypertrophy, the incised skin thickness was measured, and the results are shown graphically in FIG. 5(b).
In order to confirm the effect of the compounds according to the present invention, the lymph node of each mouse of the experimental group and control group was separated and observed. The lymph node is an interaction site between the antigen and immune cells, and since the size of the lymph node increases during the development of inflammatory symptoms, it is possible to confirm the presence or absence of inflammatory disease depending on the size of the lymph node. The photographs of the separated lymph node of each mouse of the experimental group and control group are shown in FIG. 6(a), and the weight of the lymph node and the spleen of each mouse of the experimental group and control group are shown in FIG. 6(b) and FIG. 6(c).

[4] = test system: dorsal skin tissue of Nc/Nga mice treated with DNCB; assay: Observation of mouse dorsal skin tissue (H&E, toluidine blue, CD4+ cell staining); type: in vivo; details: for expression of IFN-γ in CD4+ cells / expression of IL-4 of CD4+ cells / expression of IL-5 of CD4+ cells / expression of IL-17 of CD4+ cells: applied on the skin; for expression of IL-4 of CD4+ cells / expression of IL-5 of CD4+ cells / expression of IL-17 of CD4+ cells: compared to DNCB alone; for number of mast cells in skin tissue (toluidine blue): compared to mouse treated with DNCB alone; for skin structure of tissue sections (H&E): groups treated with the compound without DNCB; for epidermal hyperplasia and keratosis (H&E) / inflammatory cells in skin sections (H&E): treated with DNCB
Protocol: The dorsal skin samples were obtained from the experimental group and control group mice. The samples were fixed using 10% neutral buffered formalin and then embedded in paraffin. 4 μm thin tissue sections were prepared and stained with H & E (hematoxylin & eosin). […] In addition, the sections were stained with toluidine blue to investigate mast cell infiltration. Then, the stained tissue sections were photographed using NikonAX70 optical microscope (Tokyo, Japan).
In addition, the mouse tissue CD4+ cells were stained to confirm the expressions of IL-17, IFN-γ, IL-4 and IL-5.

[5] = test system: IL-4, IL-5, IFN-γ, IL-17 and IgE in mouse skin tissues; assay: Sandwich ELISA with mouse skin tissues; type: in vivo; details: for expression of IL-4 (ELISA) / expression of IL-5 (ELISA) / expression of IL-17 (ELISA): DNCB; for expression of IgE (ELISA): treated with DNCB
Protocol: To confirm the effect of the compounds according to the present invention on the synthesis of DNCB-induced IgE and inflammatory mediators, ELISA (Enzyme-Linked ImmunoSorbent Assay) was performed with the control group and the experimental group treated with the compounds of Example 1 and Example 25.
FIG. 11(a)-FIG. 11(e) are graphs showing the expression levels of IL-4, IL-5, IFN-γ, IL-17 and IgE, respectively, shown when performing sandwich ELISA (Enzyme-Linked ImmunoSorbent Assay) with the mouse skin tissues.

[6] = test system: TNF-α secretion in human PBMC cells; assay: Inhibition of TNF-α synthesis in LPS-stimulated human PBMC cells; type: cell-based; details: human PBMC cells stimulated using bacterial LPS
Protocol: In addition, to evaluate the inhibitory effect of the compounds of Example 1 and Example 25 on the synthesis of TNF-α, in vitro assay was performed. Particularly, after culturing human PBMC cells, the secretion of TNF-α was stimulated using bacterial LPS, and the expression level of TNF-α was measured.

[7] = 24 hours, compared to control group not-treated with any inhibitor
[8] = at the concentrations of 100 nM and 500 nM

Chain of PDE4B enzyme (Q07343 whole entry): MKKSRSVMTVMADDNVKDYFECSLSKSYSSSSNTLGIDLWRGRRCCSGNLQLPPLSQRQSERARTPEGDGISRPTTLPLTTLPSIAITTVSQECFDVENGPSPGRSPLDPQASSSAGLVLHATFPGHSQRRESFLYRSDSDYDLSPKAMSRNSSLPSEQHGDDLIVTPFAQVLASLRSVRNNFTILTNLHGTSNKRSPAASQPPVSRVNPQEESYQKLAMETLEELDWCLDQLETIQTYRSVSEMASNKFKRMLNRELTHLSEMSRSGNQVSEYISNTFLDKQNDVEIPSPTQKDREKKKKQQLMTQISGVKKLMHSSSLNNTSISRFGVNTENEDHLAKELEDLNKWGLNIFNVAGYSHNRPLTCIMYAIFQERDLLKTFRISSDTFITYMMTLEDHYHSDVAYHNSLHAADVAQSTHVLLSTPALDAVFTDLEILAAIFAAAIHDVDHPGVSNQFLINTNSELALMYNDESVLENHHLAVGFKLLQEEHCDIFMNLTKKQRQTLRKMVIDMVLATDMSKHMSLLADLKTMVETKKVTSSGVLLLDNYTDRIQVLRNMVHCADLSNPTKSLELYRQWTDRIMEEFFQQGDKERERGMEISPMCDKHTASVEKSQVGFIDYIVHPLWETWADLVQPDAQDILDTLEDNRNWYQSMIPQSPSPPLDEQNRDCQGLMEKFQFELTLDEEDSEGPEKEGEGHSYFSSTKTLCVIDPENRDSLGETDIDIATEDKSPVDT

SMILES | IC50 [1] [nM] | fluorescence intensity of PDE4B GFP fusion protein [2, 7] | fluorescence intensity of PDE4B GFP fusion protein [2, 8] | weight of the spleen [3] | lymph node size [3] | number of scratches for 20 minutes [3] | symptoms of hypertrophy and edema of incised dorsal skin [3] | weight of the lymph node [3] | skin thickness [3] [mm] | side effects [3] | incidence of inflammation on the dorsal skin [3] | dermatitis score at week 5 [3] | expression of IFN-γ in CD4+ cells [4] | expression of IL-4 of CD4+ cells [4] | expression of IL-5 of CD4+ cells [4] | expression of IL-17 of CD4+ cells [4] | number of mast cells in skin tissue (toluidine blue) [4] | skin structure of tissue sections (H&E) [4] | epidermal hyperplasia and keratosis (H&E) [4] | inflammatory cells in skin sections (H&E) [4] | also measured
COc1ccc(NC(=O)c2cnc(SC)nc2N2CCOCC2)cc1OC [Example 1, N-(3,4-dimethoxyphenyl)-2-(methylthio)-4-morpholinopyrimidine-5-carboxamide] | 31 | relatively weak | significantly reduced | significantly reduced | significantly reduced | significantly less | no symptoms of hypertrophy and edema | significantly reduced | 0.83 | no side effects were observed | significantly reduced | less than 3 | activated | more suppressed | more suppressed | more suppressed | significantly reduced | normal skin structure | significantly reduced | almost no inflammatory cells | expression of IFN-γ (ELISA) [5]: high; expression of IL-4 (ELISA) [5]: significantly suppressed; expression of IL-5 (ELISA) [5]: significantly suppressed; expression of IL-17 (ELISA) [5]: significantly suppressed; expression of IgE (ELISA) [5]: significantly reduced; synthesis of TNF-α [6]: effectively inhibited
COc1ccc(-c2nc(C(F)(F)F)ncc2C(=O)Nc2ccncc2)cc1OC [Example 25, 4-(3,4-dimethoxyphenyl)-N-(pyridine-4-yl)-2-(trifluoromethyl)pyrimidine-5-carboxamide] | 15 | relatively weak | significantly reduced | significantly reduced | significantly reduced | significantly less | no symptoms of hypertrophy and edema | significantly reduced | 0.71 | no side effects were observed | significantly reduced | less than 3 | activated | more suppressed | more suppressed | more suppressed | significantly reduced | normal skin structure | significantly reduced | almost no inflammatory cells | expression of IFN-γ (ELISA) [5]: high; expression of IL-4 (ELISA) [5]: significantly suppressed; expression of IL-5 (ELISA) [5]: significantly suppressed; expression of IL-17 (ELISA) [5]: significantly suppressed; expression of IgE (ELISA) [5]: significantly reduced; synthesis of TNF-α [6]: effectively inhibited
